Measured values as given in US8828908B2, “Herbicidally active bicyclic 1,3-dione compounds” (Syngenta Limited, priority 2007, dated 2014).

Columns and labels:
Type in all cases: in vivo
[1] = test system: Alopecurus myosuroides (ALOMY); test: Example B post-emergence herbicidal greenhouse test; settings: 360 h, evaluated after 15 days, 100=total damage to plant, 0=no damage
Description: (§1) Seeds of a variety of test species were sown in standard soil in pots. After cultivation for one day (pre-emergence) or after 10 days cultivation (post-emergence) under controlled conditions in a glasshouse, the plants were sprayed with an aqueous spray solution derived from the formulation of the technical active ingredient in 0.6 ml acetone and 45 ml formulation solution containing 10.6% Emulsogen EL (Registry number 61791-12-6), 42.2% N-methylpyrrolidone, 42.2% dipropylene glycol monomethyl ether (Registry number 34590-94-8) and 0.2% X-77 (Registry number 11097-66-8). The test plants were then grown in a greenhouse under optimum conditions until, 15 days later for post-emergence and 20 days for pre-emergence, the test was evaluated (100=total damage to plant; 0=no damage to plant).
(§2) Alopecurus myosuroides (ALOMY), Avena fatua (AVEFA), Lolium perenne (LOLPE), Setaria faberi (SETFA), Digitaria sanguinalis (DIGSA), Echinochloa crus-galli (ECHCG)

[2] = test system: Digitaria sanguinalis (DIGSA); test: as above; settings: 360 h, evaluated after 15 days, 100=total damage to plant, 0=no damage
Description: as §1, §2

Avena fatua (AVEFA) [3] = test: as above; settings: 360 h, evaluated after 15 days, 100=total damage to plant, 0=no damage
Description: as §1, §2

[4] = test system: Echinochloa crus-galli (ECHCG); test: as above; settings: 360 h, evaluated after 15 days, 100=total damage to plant, 0=no damage
Description: as §1, §2

Setaria faberi (SETFA) [5] = test: as above; settings: 360 h, evaluated after 15 days, 100=total damage to plant, 0=no damage
Description: as §1, §2

Lolium perenne (LOLPE) [6] = test: as above; settings: 360 h, evaluated after 15 days, 100=total damage to plant, 0=no damage
Description: as §1, §2

[7] = test system: Amaranthus retroflexus (AMARE); test: Example A post-emergence herbicidal glasshouse test; settings: 312 h, evaluated after 13 days, 100=total damage to plant, 0=no damage
Description: (§3) Seeds of a variety of test species were sown in standard soil in pots. After cultivation for one day (pre-emergence) or after 8 days cultivation (post-emergence) under controlled conditions in a glasshouse (at 24/16° C., day/night; 14 hours light; 65% humidity), the plants were sprayed with an aqueous spray solution derived from the formulation of the technical active ingredient in acetone/water (50:50) solution containing 0.5% Tween 20 (polyoxyethelyene sorbitan monolaurate, CAS RN 9005-64-5). The test plants were then grown in a glasshouse under controlled conditions in a glasshouse (at 24/16° C., day/night; 14 hours light; 65% humidity) and watered twice daily. After 13 days for pre and post-emergence, the test was evaluated (100=total damage to plant; 0=no damage to plant).
(§4) Alopecurus myosuroides (ALOMY), Avena fatua (AVEFA), Setaria faberi (SETFA), Echinochloa crus-galli (ECHCG), Solanum nigrum (SOLNI) and Amaranthus retroflexus (AMARE)

[8] = test system: Alopecurus myosuroides (ALOMY); test: as above; settings: 312 h, evaluated after 13 days, 100=total damage to plant, 0=no damage
Description: as §3, §4

Avena fatua (AVEFA) [9] = test: as above; settings: 312 h, evaluated after 13 days, 100=total damage to plant, 0=no damage
Description: as §3, §4

[10] = test system: Echinochloa crus-galli (ECHCG); test: as above; settings: 312 h, evaluated after 13 days, 100=total damage to plant, 0=no damage
Description: as §3, §4

Setaria faberi (SETFA) [11] = test: as above; settings: 312 h, evaluated after 13 days, 100=total damage to plant, 0=no damage
Description: as §3, §4

[12] = test system: Amaranthus retroflexus (AMARE); test: Example A pre-emergence herbicidal glasshouse test; settings: 312 h, Rate 250 g/ha, evaluated after 13 days, 100=total damage to plant, 0=no damage to plant
Description: as §3, §4

[13] = test system: Alopecurus myosuroides (ALOMY); test: Example A pre-emergence herbicidal glasshouse test; settings: 312 h, Rate 250 g/ha, evaluated after 13 days, 100=total damage to plant, 0=no damage to plant
Description: as §3, §4

Avena fatua (AVEFA) [14] = test: Example A pre-emergence herbicidal glasshouse test; settings: 312 h, Rate 250 g/ha, evaluated after 13 days, 100=total damage to plant, 0=no damage to plant
Description: as §3, §4

[15] = test system: Echinochloa crus-galli (ECHCG); test: Example A pre-emergence herbicidal glasshouse test; settings: 312 h, Rate 250 g/ha, evaluated after 13 days, 100=total damage to plant, 0=no damage to plant
Description: as §3, §4

Setaria faberi (SETFA) [16] = test: Example A pre-emergence herbicidal glasshouse test; settings: 312 h, Rate 250 g/ha, evaluated after 13 days, 100=total damage to plant, 0=no damage to plant
Description: as §3, §4

[17] = test system: Alopecurus myosuroides (ALOMY); test: Example B pre-emergence herbicidal greenhouse test; settings: 480 h, evaluated after 20 days, 100=total damage to plant, 0=no damage
Description: as §1, §2

[18] = test system: Digitaria sanguinalis (DIGSA); test: Example B pre-emergence herbicidal greenhouse test; settings: 480 h, evaluated after 20 days, 100=total damage to plant, 0=no damage
Description: as §1, §2

Avena fatua (AVEFA) [19] = test: Example B pre-emergence herbicidal greenhouse test; settings: 480 h, evaluated after 20 days, 100=total damage to plant, 0=no damage
Description: as §1, §2

[20] = test system: Echinochloa crus-galli (ECHCG); test: Example B pre-emergence herbicidal greenhouse test; settings: 480 h, evaluated after 20 days, 100=total damage to plant, 0=no damage
Description: as §1, §2

Setaria faberi (SETFA) [21] = test: Example B pre-emergence herbicidal greenhouse test; settings: 480 h, evaluated after 20 days, 100=total damage to plant, 0=no damage
Description: as §1, §2

Lolium perenne (LOLPE) [22] = test: Example B pre-emergence herbicidal greenhouse test; settings: 480 h, evaluated after 20 days, 100=total damage to plant, 0=no damage
Description: as §1, §2

Structure (SMILES) | pest or weed control at 125 g/ha [1] [%] | pest or weed control at 125 g/ha [2] [%] | pest or weed control at 125 g/ha (Avena fatua (AVEFA) [3]) [%] | pest or weed control at 125 g/ha [4] [%] | pest or weed control at 125 g/ha (Setaria faberi (SETFA) [5]) [%] | pest or weed control at 125 g/ha (Lolium perenne (LOLPE) [6]) [%] | pest or weed control at 250 g/ha [7] [%] | pest or weed control at 250 g/ha [8] [%] | pest or weed control at 250 g/ha (Avena fatua (AVEFA) [9]) [%] | pest or weed control at 250 g/ha [10] [%] | pest or weed control at 250 g/ha (Setaria faberi (SETFA) [11]) [%] | pest or weed control at 250 g/ha [12] [%] | pest or weed control at 250 g/ha [13] [%] | pest or weed control at 250 g/ha (Avena fatua (AVEFA) [14]) [%] | pest or weed control at 250 g/ha [17] [%] | pest or weed control at 250 g/ha [18] [%] | pest or weed control at 250 g/ha (Avena fatua (AVEFA) [19]) [%] | pest or weed control at 250 g/ha [20] [%] | pest or weed control at 250 g/ha (Setaria faberi (SETFA) [21]) [%] | pest or weed control at 250 g/ha (Lolium perenne (LOLPE) [22]) [%] | also measured
CCc1ccc(-c2ccc(Cl)cc2Cl)cc1C1=C(OC(=O)OC)[C@H]2CC[C@H](C2)C1=O (single isomer, unassigned) [Compound P4, carbonic acid 3-(2′,4′-dichloro-4-ethylbiphen-3-yl)-4-oxo-bicyclo[3.2.1]oct-2-en-2-yl ester methyl ester] | 100 | 100 | 80 | 100 | 100 | 90 | 0 | 100 | 90 | 100 | 100 | 40 | 80 | 50 | 90 | 100 | 70 | 100 | 100 | 90 | pest or weed control at 250 g/ha [15]: 90%; pest or weed control at 250 g/ha (Setaria faberi (SETFA) [16]): 100%
CCc1ccc(-c2ccc(Cl)cc2Cl)cc1C1=C(OC(C)=O)[C@H]2CC[C@H](C2)C1=O (single isomer, unassigned) [Compound P7] | 60 | 90 | 80 | 100 | 100 | 70 | 0 | 90 | 100 | 100 | 100 | 0 | 40 | 90 | 70 | 80 | 30 | 50 | 80 | 70 | pest or weed control at 250 g/ha [15]: 100%; pest or weed control at 250 g/ha (Setaria faberi (SETFA) [16]): 100%
CCc1ccc(-c2ccc(Cl)cc2C)cc1C1=C(O)[C@H]2CC[C@H](C2)C1=O (single isomer, unassigned) [Compound T33] | 60 | 60 | 70 | 100 | 100 | 20 | 0 | 60 | 60 | 100 | 100 | 0 | 60 | 20 | 60 | 70 | 20 | 70 | 70 | 70 | pest or weed control at 250 g/ha [15]: 90%; pest or weed control at 250 g/ha (Setaria faberi (SETFA) [16]): 90%
CCc1ccc(-c2ccc(Cl)c(C#N)c2)cc1C1=C(O)[C@H]2CC[C@H](C2)C1=O (single isomer, unassigned) [Compound T34] | 0 | 40 | 10 | 80 | 40 | 0 | 0 | 70 | 70 | 100 | 90 | 0 | 60 | 0 | 40 | 90 | 40 | 90 | 90 | 40 | pest or weed control at 250 g/ha [15]: 70%; pest or weed control at 250 g/ha (Setaria faberi (SETFA) [16]): 100%
CCc1ccc(-c2ccc(Cl)c(Cl)c2)cc1C1=C(O)[C@H]2CC[C@H](C2)C1=O (single isomer, unassigned) [Compound T35] | 0 | 70 | 10 | 80 | 70 | 20 | 0 | 40 | 50 | 100 | 100 | 0 | 20 | 20 | 10 | 70 | 30 | 50 | 40 | 20 | pest or weed control at 250 g/ha [15]: 90%; pest or weed control at 250 g/ha (Setaria faberi (SETFA) [16]): 90%
Cc1cc(-c2ccccc2)cc(C)c1C1=C(OC(=O)C(C)(C)C)C2CCC(C2)C1=O (centres unmarked) [Compound P2, 3-(3,5-dimethylbiphen-4-yl)-4-oxo-bicyclo[3.2.1]oct-2-en-2-yl 2,2-dimethylpropionate] | 30 | 40 | 0 | 60 | 40 | 10 |  |  |  |  |  |  |  |  | 30 | 70 | 40 | 50 | 70 | 30 | 
CCc1ccc(-c2ccc(F)cc2)cc1C1=C(O)[C@H]2CC[C@H](C2)C1=O [Compound T3] | 50 | 80 | 30 | 90 | 90 | 0 |  |  |  |  |  |  |  |  | 50 | 80 | 60 | 100 | 100 | 70 | 
CCc1ccc(-c2ccc(C)cc2)cc1C1=C(O)[C@H]2CC[C@H](C2)C1=O [Compound T5] | 0 | 50 | 0 | 80 | 70 | 0 |  |  |  |  |  |  |  |  | 0 | 10 | 10 | 100 | 0 | 0 | 
Cc1cc(-c2ccccc2)cc(C)c1C1=C(O)[C@H]2CC[C@H](C2)C1=O [Compound T6, 3-(3,5-dimethylbiphen-4-yl)bicyclo[3.2.1]-2,4-dione] | 20 | 10 | 10 | 30 | 0 | 10 |  |  |  |  |  |  |  |  | 60 | 100 | 0 | 90 | 80 | 50 | 
